Measurements: the SangsterLogP compilation

logP | Compound
2.39 | Cc1cc(C)nc(NC(=O)c2ccc([N+](=O)[O-])o2)c1
4.07 | Cc1cc(C)nc(NC(=O)Cc2ccc(Br)cc2)c1
4.08 | Cc1cc(C)nc(NC(=O)c2cc3ccccc3s2)c1
2.42 | Cc1cc(C)nc(NC(=O)c2cccn2C)c1
3.74 | Cc1cc(C)nc(NC(=O)c2ccc(Br)s2)c1
2.77 | Cc1cc(C)nc(NC(=O)c2cccs2)c1
3.88 | Cc1cc(C)nc(NC(=O)c2cccc(Cl)c2)c1
2.35 | CC(=O)Oc1ccccc1C(=O)Nc1cc(C)cc(C)n1
4.27 | COc1cccc2cc(C(=O)Nc3cc(C)cc(C)n3)oc12
3.22 | Cc1cc(C)nc(NC(=O)c2ccc(Br)o2)c1
2.88 | Cc1cc(C)nc(NC(=O)c2cccc(C#N)c2)c1
2.75 | Cc1cc(C)nc(NC(=O)c2ccc(C)o2)c1
3.67 | Cc1cc(C)nc(NC(=O)C(C)c2ccccc2)c1 (configuration not stated)
3.09 | Cc1cc(C)nc(NC(=O)c2ccccc2)c1
2.25 | Cc1cc(C)nc(NC(=O)c2ccco2)c1
3.31 | Cc1cc(C)nc(NC(=O)c2cccc(F)c2)c1
3.45 | Cc1cc(C)nc(NC(=S)c2ccccc2)c1
4.77 | Cc1cc(C)nc(NC(=O)C(c2ccccc2)c2ccccc2)c1
4.04 | Cc1cc(C)nc(NC(=O)c2cccc(Br)c2)c1
3.54 | Cc1cc(C)nc(NC(=O)c2cc3ccccc3o2)c1
3.13 | Cc1cc(C)nc(NC(=O)c2cccc([N+](=O)[O-])c2)c1
3.2 | Cc1cc(C)nc(NC(=S)c2ccc(C)o2)c1
